Here are results for three compounds from patent publication US6608032B1, “Medicinal compositions” (Takara Shuzo Co., Ltd., priority 1999, dated 2003).

Structures are written as SMILES. Like-named read-outs stand apart in the source and are kept apart here.

One assay addresses α-glucosidase (Rattus norvegicus, UniProt P23739). The experiment in a line: α-glucosidase inhibition, crude enzyme preparation from rat small intestine mucous membrane. It is filed as biochemical. Here is the method:
(2) A crude enzyme preparation obtained from rat small intestine mucous membrane prepared according to the method as described in Arne Dahlqvist, Anal. Biochem., 7:18-25 (1964) was used to measure the activity of inhibiting α-glucosidase of agarotetraose or agarohexaose prepared in Referential Example 1 in vitro as follows.
For the enzymatic reaction, 80 μl of a solution of sucrose, maltose, treharose or soluble starch as a substrate in 10 mM phosphate buffer (pH 7.0) at a final concentration of 100 mM (0.5% in case of soluble starch) was added to 10 μl of a test sample solution appropriately diluted with the same buffer. 10 μl of the crude enzyme solution prepared from rat small intestine was added thereto. The mixture was reacted at 37° C. for 20 minutes. The enzymatic activity was determined as follows as the amount of glucose generated in the reaction mixture: 3 ml of a reagent for glucose measurement (Wako Pure Chemical Industries) was added to the reaction mixture, reaction was carried out at 37° C. for 5 minutes, and then the absorbance at 505 nm was measured. The inhibitory activity on the digestion of each substrate was expressed as a remaining activity (%) against the control, which was calculated based on the activity measured as described above for each of four different concentrations. The remaining activities (%) on the respective substrates in the presence of agarotetraose are shown in Table 2, whereas the remaining activities (%) on the respective substrates in the presence of agarohexaose are shown in Table 3.

The next assay concerns cyclooxygenase 2 protein. The experiment in a line: LPS-induced cyclooxygenase 2 protein expression in RAW264.7 cells (Western blot). The class given is cell-based. Particulars: 50 μl of 10 mM solution per 5 ml, added 0 or 6 hours before LPS. On the procedure: (1) RAW264.7 cells (ATCC TIB 71) were suspended in Dulbecco's modified Eagle's medium (Bio Whittaker, 12-604F) containing 10% fetal calf serum (Gibco) at a concentration of 3×10^5 cells/ml. 5 ml of the suspension was added to each well of a 6-well microtiter plate and the plate was incubated at 37° C. overnight in the presence of 5% CO2. 50 μl of a solution containing agarobiose or agarohexaose at a concentration of 10 mM in water was added to the well. The plate was incubated for 0 or 6 hours. 50 μl of a solution containing lipopolysaccharide (LPS, Sigma, L-2012) at a concentration of 100 μg/ml in water was added to the well. The plate was incubated for additional 12 hours. The cells were recovered by detaching the cells from the plate using a scraper and suspended in phosphate buffered saline containing 1 μg/ml pepstatin A (Sigma, P5318), 1 μg/ml leupeptin (Sigma, L2884), 1 mM phenylmethylsulfonyl fluoride (Nacalai Tesque, 273-27), 10 mM ethylenediaminetetraacetic acid disodium salt and 0.1% Triton X-100. A supernatant obtained by centrifuging the suspension after freezing and thawing was used as a protein fraction. The content of protein in the protein fraction was determined using Micro BCA Protein Assay Reagent (a product of Pierce sold by Takara Shuzo, P7411). […]
(Immunoblotting shows a protein as a band on a membrane.)

Another assay deals with HL-60 cells. The assay is described as follows: Proliferation of HL-60 cells with or without hydroxyurea G1 arrest, WST-1. It is filed as cell-based. The conditions noted are these: read-out: IC50 (concentration at which 50% of the proliferation is inhibited). Here is the method: HL-60 cells (ATCC CCL-240) were suspended in RPMI 1640 medium (Bio Whittaker, 12-702F) containing 10% fetal calf serum (Gibco) and […] at a concentration of 5×10^5 cells/ml. 20 ml of the suspension was added to a 10-cm Petri dish. The dish was incubated at 37° C. overnight in the presence of 5% CO2 to make the cells arrest at G1 phase. The cells were collected by centrifugation and resuspended in RPMI 1640 medium containing 10% fetal calf serum (Gibco) and 100 μM hydroxyurea at a concentration of 5×10^5 cells/ml. 5 ml of the suspension was added to each well of a 6-well microtiter plate. On the other hand, as cells without the treatment with hydroxyurea, HL-60 cells were suspended in RPMI 1640 medium containing 10% fetal calf serum (Gibco) at a concentration of 1×10^5 cells/ml. 5 ml of the suspension was added to each well of a 6-well microtiter plate. 50 μl of a solution containing agarobiose at a concentration of 80, 60, 40 or 20 mM in water, or 50 μl of a solution containing the agarohexaose at a concentration of 80, 60, 40 or 20 mM in water was added to the well containing the cells treated with hydroxyurea. 50 μl of a solution containing agarobiose at a concentration of 40, 30, 20 or 10 mM in water, or 50 μl of a solution containing agarohexaose at a concentration of 40, 30, 20 or 10 mM in water was added to the well containing the cells without the treatment with hydroxyurea. The plate was incubated for additional 48 hours. Cells collected by centrifuging the culture were suspended in 5 ml of fresh RPMI 1640 medium containing 10% fetal calf serum (Gibco). 100 μl of the suspension was used for measuring the viable cell number using Premix WST-1 Cell Proliferation Assay System (Takara Shuzo, MK400).
In general terms: Tetrazolium assays rely on reduction of a dye to a coloured formazan, in cell work by metabolically active cells.

α-glucosidase, sequence (P23739 whole entry): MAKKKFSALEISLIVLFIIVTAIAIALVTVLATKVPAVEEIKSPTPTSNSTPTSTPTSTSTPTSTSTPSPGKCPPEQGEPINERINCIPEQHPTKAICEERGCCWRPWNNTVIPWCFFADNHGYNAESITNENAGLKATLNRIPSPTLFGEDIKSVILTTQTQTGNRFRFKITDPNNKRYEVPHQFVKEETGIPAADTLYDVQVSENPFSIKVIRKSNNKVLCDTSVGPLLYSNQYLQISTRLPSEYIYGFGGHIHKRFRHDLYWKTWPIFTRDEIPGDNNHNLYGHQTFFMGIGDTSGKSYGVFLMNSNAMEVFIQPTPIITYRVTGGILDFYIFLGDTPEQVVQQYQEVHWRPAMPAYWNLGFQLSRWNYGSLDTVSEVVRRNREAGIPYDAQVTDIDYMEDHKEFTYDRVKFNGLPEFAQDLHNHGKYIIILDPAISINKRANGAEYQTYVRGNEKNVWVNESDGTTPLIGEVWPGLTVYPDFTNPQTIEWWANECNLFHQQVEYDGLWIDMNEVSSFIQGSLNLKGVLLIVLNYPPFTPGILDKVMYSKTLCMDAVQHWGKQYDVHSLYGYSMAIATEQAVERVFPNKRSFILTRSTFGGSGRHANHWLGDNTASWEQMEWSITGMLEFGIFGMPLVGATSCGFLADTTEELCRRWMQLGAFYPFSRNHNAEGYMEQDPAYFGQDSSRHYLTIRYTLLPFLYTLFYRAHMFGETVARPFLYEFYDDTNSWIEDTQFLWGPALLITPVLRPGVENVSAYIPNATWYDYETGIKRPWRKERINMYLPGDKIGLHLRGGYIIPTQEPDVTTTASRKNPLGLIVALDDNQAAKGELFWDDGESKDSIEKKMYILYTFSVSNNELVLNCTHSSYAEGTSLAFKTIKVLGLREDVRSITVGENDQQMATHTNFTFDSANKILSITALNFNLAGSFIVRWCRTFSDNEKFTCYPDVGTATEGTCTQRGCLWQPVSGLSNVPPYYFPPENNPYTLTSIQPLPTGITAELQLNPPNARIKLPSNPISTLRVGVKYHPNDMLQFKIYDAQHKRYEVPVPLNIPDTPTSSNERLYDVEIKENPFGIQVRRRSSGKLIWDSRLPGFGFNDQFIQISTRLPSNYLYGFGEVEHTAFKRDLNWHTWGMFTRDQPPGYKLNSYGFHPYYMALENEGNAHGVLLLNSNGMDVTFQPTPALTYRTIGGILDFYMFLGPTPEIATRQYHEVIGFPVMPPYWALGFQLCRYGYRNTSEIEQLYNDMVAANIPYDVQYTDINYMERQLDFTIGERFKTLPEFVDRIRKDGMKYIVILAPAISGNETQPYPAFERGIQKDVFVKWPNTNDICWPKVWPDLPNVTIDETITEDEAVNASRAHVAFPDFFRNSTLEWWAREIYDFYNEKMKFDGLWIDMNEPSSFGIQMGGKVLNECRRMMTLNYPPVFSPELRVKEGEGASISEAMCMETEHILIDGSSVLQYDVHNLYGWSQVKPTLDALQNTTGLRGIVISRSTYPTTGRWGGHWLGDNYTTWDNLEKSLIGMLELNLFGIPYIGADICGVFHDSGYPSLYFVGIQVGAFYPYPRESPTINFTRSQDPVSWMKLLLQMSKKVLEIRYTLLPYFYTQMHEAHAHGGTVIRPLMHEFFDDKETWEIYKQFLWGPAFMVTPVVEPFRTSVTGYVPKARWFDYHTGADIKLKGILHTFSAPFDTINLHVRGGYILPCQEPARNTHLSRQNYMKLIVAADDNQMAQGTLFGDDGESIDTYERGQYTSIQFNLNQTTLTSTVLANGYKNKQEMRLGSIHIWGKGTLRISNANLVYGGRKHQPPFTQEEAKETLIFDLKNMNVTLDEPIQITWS

At α-glucosidase, `OCC1OC(OC2C3COC2C(O)C(OC2C(O)C(CO)OC(OC4C5COC4C(O)C(O)O5)C2O)O3)C(O)C(O)C1O` (centres unmarked) [Agarotetraose, agarotetraose] came in with a remaining activity at 200 µM of 92%, a remaining activity at 500 µM of 85%, a remaining activity at 1000 µM of 83% and a remaining activity at 2000 µM of 72%.
`OC[C@H]1O[C@@H](O[C@H]2[C@H]3OC[C@@H]2OC(O)[C@H]3O)[C@H](O)[C@@H](O)[C@H]1O` (mixture of isomers) [Agarobiose, agarobiose]: the “increase in cyclooxygenase 2 protein expression induced by LPS” value with cyclooxygenase 2 protein is “not suppressed”. The IC50 was 401 µM in the assay with HL-60 cells (Cells treated with hydroxyurea (arrested at G1 phase), 48 hours) and 211 µM in the assay on HL-60 cells (Cells without treatment with hydroxyurea, 48 hours).
With `OCC1OC(OC2C3COC2C(O)C(OC2C(O)C(CO)OC(OC4C5COC4C(O)C(OC4C(O)C(CO)OC(OC6C7COC6C(O)C(O)O7)C4O)O5)C2O)O3)C(O)C(O)C1O` (centres unmarked) [Agarohexaose, agarohexaose], at α-glucosidase, the remaining activity at 200 µM is 92%, the remaining activity at 500 µM came to 85%, the remaining activity at 1000 µM is 81% and the remaining activity at 2000 µM amounted to 70%. For the same compound, the “increase in cyclooxygenase 2 protein expression induced by LPS” value with cyclooxygenase 2 protein was “not suppressed”. The IC50 in the assay with HL-60 cells (Homo sapiens, HL-60, 48 h, Cells treated with hydroxyurea (arrested at G1 phase)) came to 383 µM. The IC50 with HL-60 cells (Homo sapiens, HL-60, 48 h, Cells without treatment with hydroxyurea) was 205 µM.

The remaining activity is the activity still measured, relative to the control.
